In PubChem BioAssay AID179 (DTP/NCI, 2004):
The source made the active and inactive calls.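 Rule for the calls: active = compounds giving half or more protection of infected cells from virus-caused growth loss, again on retest; inactive = the rest.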

Tested on: CEM cells HIV-1 protection, formazan growth assay
Assay: NCI AIDS Antiviral Assay
Settings: for IC50: measured here: growth of uninfected CEM cells
How it was run: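 Screen of anti-HIV-1 activity in human CEM cells using a formazan-based growth measurement at five drug concentrations. Hits with 50% or greater protection were repeated, and confirmation required reproducible complete protection.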

SMILES	EC50 [µM]	IC50 [µM]	outcome
COc1ccc(N=Nc2c(N)nn3cc4c(nc23)-c2ccccc2C4)cc1	> 200	–	–
CC(C)(C)C1CCC2(CC1)CCN(N1CCCCCC1)CC2	> 100	91.2	–
CCn1c(=O)c2c3ccc(O)cc3oc2c2ccc(O)cc21	> 200	89.1	–
CCOC(=O)O/C(=C\c1ccc(OC)cc1)c1c(OC(=O)OCC)n(C(=O)OCC)c2ccccc12	> 200	6.61	–
Cc1c(O)nc(CO)[nH]c1=O	> 200	> 200	–
COC(=O)c1ncn(C(C(=O)OC)C(=O)OC)c1O	> 200	> 200	–
Nc1nc(Cl)cc(Nc2ccc3c(c2)CCC3)n1	> 200	22.4	–
CCNCC(=O)O[C@]1(CC)C(=O)OCc2c1cc1n(c2=O)Cc2cc3ccccc3nc2-1	> 10	0.0708	–
Cc1cc([C@H](C#N)c2nc3ccccc3s2)nc(Cl)n1	> 15.1	1.05	–
C=CC1=C(C)C2=NC1=CC1=NC(=CC3=C(C)C4=C(O)C(C(=O)O)C(=C5NC(=C2)C(C)C5CCC(=O)O)C4=N3)C(CC)=C1C (centres undefined)	> 39.8	> 39.8	–
O=c1[nH]nc(-c2ccccc2)n1-n1cccc1	> 200	97.7	–
COc1cc2c(cc1OC)[C@@H]([C@H](O)c1ccccc1)NCC2	–	–	inactive
COc1cc(C)c2c(c1)C=C1C(=O)C(=O)C(C(C)C)=C(O)C1=CC2	–	–	inactive
S=C1NC(c2ccccc2)=NC(Cc2ccccc2)(c2ccccc2)N1c1ccccc1 (centres undefined)	–	–	inactive
CCOC(=O)Nc1ccc(/C=C\c2ccnc3ccccc23)cc1	> 16.2	10	–
CCN1CCC(O)(/C=C/c2ccc(C)cc2)C(C(=O)/C=C/c2ccc(C)cc2)C1 (centres undefined)	> 117	2.57	–
Cc1ccc(C2=Nc3ccccc3SC(c3cccc4c3OCO4)C2)cc1 (centres undefined)	> 14.1	> 14.1	–
COC1OC(=O)C(OC)C(OC)C1OC (centres undefined)	–	–	inactive
Clc1ccc(/C=N/N=C(N/N=C/c2ccc(Cl)cc2Cl)N/N=C/c2ccc(Cl)cc2Cl)c(Cl)c1	> 100	> 100	–
CCc1cc(CCC(=O)Nc2c(C)cccc2C)[nH]n1	> 912	> 912	–

SMILES	EC50 [µM]	IC50 [µM]	outcome
Clc1ccc(C2=NCON=C2c2ccc(Cl)cc2)cc1	–	–	inactive
CC(O[Si](c1ccccc1)(c1ccccc1)C(C)(C)C)[C@H](NC(=O)OC(C)(C)C)C(=O)O[Si](c1ccccc1)(c1ccccc1)C(C)(C)C (some centres undefined)	> 26.9	24	–
C=C=C[P+](c1ccccc1)(c1ccccc1)c1ccccc1	> 155	3.24	–
CCCCCC=C(c1cc(Br)cc(C(=O)O)c1O)c1cc(Br)cc(C(=O)O)c1O	> 166	15.8	–
Cc1ccc(C)c(NC(=O)CCc2n[nH]c(=S)o2)c1	> 9.33	> 9.33	–
Cn1c(=O)c2c(nc(N)n2C2OC(CO)C(O)C2O)n(C)c1=O (centres undefined)	> 200	> 200	–
COC1CC(n2ccc(=O)[nH]c2=O)OC1CO (centres undefined)	> 200	> 200	–
C=C1CN(S(=O)(=O)c2ccc(C)cc2)CCCN(C2CCCC2)CCCN(S(=O)(=O)c2ccc(C)cc2)C1	> 200	4.07	–
O=C(Nc1cccc(C(=O)Nc2ccc(C3=NCCN3)cc2)c1)c1ccc(C2=NCCN2)cc1	9.12	155	–
O=C(NCc1ccc(O)cc1O)c1ccccc1O	> 200	138	–
Nc1ncnc2c1ncn2C1CC(CO)C(CO)O1 (centres undefined)	–	–	inactive
CC1=C/C(=N\N(C)C)C(C(O)(C(F)(F)F)C(F)(F)F)C(C)(C)C1 (centres undefined)	> 200	102	–
Cn1c2ccccc2c2oc(CO)cc(=O)c21	> 200	126	–
C=CCNC(=S)/N=C/C(C(=O)Nc1ccc(Cl)cc1)=C(\C)O	> 200	129	–
COc1ccc(/C=C(/C(=O)c2ccccc2)c2ccccc2)cc1	> 8.71	> 8.71	–
CCOC(=O)CSc1nc(-c2ccc(Cl)cc2)c(C#N)c(=O)[nH]1	> 200	93.3	–
COc1c(OCC(O)CN2CCCCC2)c2c(C)coc2c2ccoc12 (centres undefined)	> 631	35.5	–
Cc1cc(C)c2c(c1)CN1CN2Cc2cc(C)cc(C)c21	–	–	inactive
CCOC(=O)C1(c2ccccc2)C(=O)Oc2ccccc21 (centres undefined)	13.2	64.6	–
C=C1C(=O)O[C@@H]2[C@H]1CCC(C)=C1C=CC(=O)[C@]12C	–	–	inactive

SMILES	EC50 [µM]	IC50 [µM]	outcome
Cc1cc2c(cc1C)NC(=O)CC(c1ccccc1)=N2	> 200	> 200	–
O=C(CC(=O)Nc1ccccc1O)Nc1ccccc1O	> 447	22.4	–
CC(=O)OC[C@]12[C@H](OC(C)=O)[C@H](OC(C)=O)[C@@H]3C(O)[C@@]14OC3(C)COC(=O)c1cccnc1CCC(C)C(=O)OC([C@H](OC(C)=O)[C@@H]2OC(=O)c1ccccc1)[C@]4(C)O (some centres undefined)	> 30.2	> 30.2	–
Cc1cc(C2(O)C=C(C(C)(C)C)C(=O)C(C(C)(C)C)=C2)c(C)cc1C1(O)C=C(C(C)(C)C)C(=O)C(C(C)(C)C)=C1	> 151	> 151	–
COc1ccc(/C(C#N)=C\c2ccc(N(C)C)cc2)cc1	> 100	1.23	–
CN(C)C(=S)SSSSC(=S)N(C)C	> 2	0.525	–
Cc1cc(=O)[nH]c(NN2C(Cl)C(=O)C2c2ccc([N+](=O)[O-])cc2)n1 (centres undefined)	> 53.7	8.51	–
Cc1ccc(S(=O)(=O)N2CCN3CCN(CCN(C)CCN4CCN(CC4)CCN(S(=O)(=O)c4ccc(C)cc4)CCN(S(=O)(=O)c4ccc(C)cc4)CCN(S(=O)(=O)c4ccc(C)cc4)CCN(S(=O)(=O)c4ccc(C)cc4)CCN4CCN(CCN(C)CCN5CCN(CC5)CCN(S(=O)(=O)c5ccc(C)cc5)CCN(S(=O)(=O)c5ccc(C)cc5)CCN(S(=O)(=O)c5ccc(C)cc5)CC2)CC4)CC3)cc1	> 5.01	0.724	–
CCOC(=O)c1c(C)nc2c3ccccc3c(C#N)c(C)n12	> 100	> 100	–
COc1ccc2c(c1)C(=O)N1CSCC1C(=O)S2 (centres undefined)	> 200	> 200	–
Cc1ccc2ccc3c(=O)cc(C)[nH]c3c2n1	9.77	32.4	–
Cc1ccc(N=Nc2c(-c3ccccc3)nn(C(=O)CC(=O)Nc3ccc(Cl)cc3)c2-c2ccccc2)cc1	> 9.77	> 9.77	–
Cc1cc(NS(=O)(=O)c2ccc(Nc3c4ccccc4nc4ccc(C(=O)Nc5ccc(S(=O)(=O)N=C(N)N)cc5)cc34)cc2)no1	> 200	110	–
O=C1C2C(C(=O)N1c1ccccc1)C1([N+](=O)[O-])C=C3c4ccccc4N(C(=O)c4ccccc4)C32C2C(=O)N(c3ccccc3)C(=O)C21 (centres undefined)	–	–	inactive
CCC(C)[N-]c1cccc[n+]1[O-].CCC(C)[N-]c1cccc[n+]1[O-].[Cu+2] (centres undefined)	> 200	83.2	–
CCCCCCCCCCCCCCCCCC(=O)O[C@H](COC(=O)CCCCCCCCCCC)COC(=O)CCCCCCCCCCCCCCC	> 100	> 100	–
CN(C)CCCOCCn1c2c(c3ccccc31)CCCC2	> 200	32.4	–
O=C(C=P(c1ccccc1)(c1ccccc1)c1ccccc1)C12CC3CC(CC(C3)C1)C2	> 100	6.61	–
COc1cc(NS(C)(=O)=O)ccc1Nc1c2ccccc2nc2ccccc12	–	–	inactive
O=[N+]([O-])C(Cl)C(Cl)C(Cl)=C(Cl)Cl (centres undefined)	> 200	> 200	–
